SMILES strings stand for the structures. Where two headings read alike, the source gives them in different places.

Data on two compounds can be found in publication PMC7749516, “Safety and nonclinical and clinical pharmacokinetics of PC945, a novel inhaled triazole antifungal agent” (Pharmacology Research & Perspectives, 2020).

For series [1] the following is noted: cited from earlier work.
Series [2] deals with CYP3A4/5. Description: CYP inhibition in pooled human liver microsomes. In kind it is in vitro ADME. The following applies: without preincubation, pooled human liver microsomes.
Procedure: Microsomal reactions were terminated by adding 100 μL of cold (4°C) methanol containing appropriate internal standard. Aliquots (150 μL) of each sample were centrifuged and the supernatant was used for substrate analysis by ultra‐performance liquid chromatography with tandem mass spectrometry (UPLC‐MS/MS) on the day of incubations.
Change in substrate concentration was measured to determine the extent of CYP‐isoform inhibition. The 30‐minute preincubations were performed to determine whether there was time‐dependent inhibition of any CYP isoform (CYP1A2, 2B6, 2C8, 2C9, 2C19, 2D6, and 3A4/5). Untreated control contained only solvent, dimethyl sulfoxide (≤0.5% [v/v]).

A word on the Cmax: it is the peak of the concentration-time curve. For the compound `CCC(C)n1ncn(-c2ccc(N3CCN(c4ccc(OCC5COC(Cn6cncn6)(c6ccc(Cl)cc6Cl)O5)cc4)CC3)cc2)c1=O` (centres unmarked) [itraconazole], the Cmax in series [1] (after 15‐day, 200 mg daily oral dosing) is 1520 nM.
One may read the IC50 as the concentration that gives 50% inhibition. A low value points to inhibition by little substance. On to `CC[C@@H]([C@H](C)O)n1ncn(-c2ccc(N3CCN(c4ccc(OC[C@@H]5CO[C@@](Cn6cncn6)(c6ccc(F)cc6F)C5)cc4)CC3)cc2)c1=O` [posaconazole, reference compound], for which the IC50 was determined as 320 nM in series [2] (probe midazolam, substrate midazolam) and 81 nM in series [2] (probe testosterone, substrate testosterone). In addition, in series [1] (14‐day oral 400 mg twice daily, steady state), the “Mean concentration in pulmonary alveolar cells relative to lung epithelial lining fluid and plasma” value is on record as “over 30 fold”. Besides, in series [1] (after 200 mg three times daily oral dosing), the Cmax was 830 nM.
